Laboratory results from patent US20240350647A1, “STING SENSITIZING AGENTS” (STipe Therapeutics ApS, priority 2023, published 2024).
Where a SMILES comes first, the peptide text is derived from it. Bridges are numbered along the chain shown (N, C = ends). Where no end group is shown, it is not given here. [ ]: non-standard residue; d: D form. The star is where a group is joined. C16 diacid = O=C(O)CCCCCCCCCCCCCCC(=O)*; AEEA = NCCOCCOCC(=O)O

How the values were obtained:
[1] = FIG. 10A
Method: Table printed on a drawing sheet, FIG. 10A
(§1) The patent's description of the figure: FIGS. 10A-10C. Pharmacokinetic profile and parameter for peptides after intravenous administration. FIG. 10A) Mouse PK data (10 mg/kg, bolus IV, n=3 per timepoint). FIG. 10B) Rat PK data (10 mg/kg, bolus IV, n=3 per timepoint). FIG. 10C) Non-human primate (NHP) PK data (4 mg/kg, 30 min IV infusion, n=3). Error bars represent the standard deviation (SD).
First reader's note: Mouse PK parameters; the legend of the plot on the same sheet gives 10 mg/kg (IV) for both agents.

[2] = FIG. 10B
Method: Table printed on a drawing sheet, FIG. 10B
as §1
First reader's note: Rat PK parameters; the plot legend on the same sheet gives 10 mg/kg (IV) for both agents, and the top-left cell 'PK parameters / rat' spans the first two rows.

[3] = FIG. 10C
Method: Table printed on a drawing sheet, FIG. 10C
as §1
First reader's note: The species NHP stands in the head column of row 2, and the plot legend on the same sheet gives the dosing as 4 mg/kg (30-min IV) for both agents.

[4] = FIG. 9
Method: Table printed on a drawing sheet, FIG. 9
The patent's description of the figure: FIG. 9. In vitro metabolic stability in blood.
First reader's note: Each column is one agent and each row gives its half-life in blood of one species at 37 °C; the test concentration is printed in the row label, or in the cells for human.

[5] = tested on: CD4+ T cells; experiment: Dendritic Cell-T cell (DC-T) proliferation assay (ProImmune); settings: 22 donors; Percentage Stimulation above Background ≥0.5%, SEM=2; peptides 0.34 μM
Source text: A panel of peripheral blood mononuclear cell (PBMC) samples from healthy human donors was selected from the ProImmune Ltd (UK) cell bank. Each PBMC sample was HLA (Human Leukocyte Antigen)-typed and stored in liquid nitrogen (vapor-phase) prior to use. The panel was selected so that HLA class II alleles known to be highly expressed in the global population were well represented (data not shown). Donors were predominantly selected by DRB1 allele expression.
A Dendritic Cell-T cell (DC-T) proliferation assay (ProImmune Ltd) was used to identify the presence or potential T cell epitopes within the peptides. Adherent donor PBMCs were cultured with appropriate growth factors to generate monocyte-derived DCs. DCs were then loaded with a control (control 1 and control 2), the peptide (Agent 1, Agent 2, and Agent 3, see FIG. 8A) or left untreated. The peptides were loaded at a final concentration of 0.34 μM.
Mature antigen-loaded DCs were then co-cultured at a fixed ratio with autologous CFSE-labelled T cells in multi-well plates. Each test condition was set up in eight replicate wells and cells were incubated for 7 days. At the end of the incubation period, cell samples were stained with anti-CD4 antibody, then washed and fixed for by flow cytometric analysis. Proliferation was determined by measuring a decrease in CFSE intensity.
Data were compiled to determine antigen-induced proliferation per individual donor, calculated as Percentage Stimulation above Background. The frequency of positive donor cell responses (Percentage Antigenicity) was calculated as the proportion of responding donors out of total donors. Values were then standardized against the strength of response (an average of the Percentage Stimulation value obtained across accepted donors for each protein) to give a response index (RI).
Data obtained by flow cytometric evaluation of cell samples was analyzed using FlowJo Software (Tree Star, Inc.). The number of CFSE-dim (i.e., proliferating) cells was determined for each sample in eight replicate wells. Counts for the CD4^+ CFSE dim population in each sample were expressed as a proportion of the total CD4^+ population. The eight replicate values were then used to calculate Percentage Stimulation above Background (proportion of CD4^+ CFSE dim cells with antigen stimulation minus the proportion of CD4^+ CFSE dim cells without antigen stimulation).
Background threshold values are based on data from unstimulated cells for which a maximum acceptable resting proliferation threshold is established.
In evaluating antigenicity, it is also appropriate to take account of the frequency of donor cell responses across the study cohort. A positive response (Percentage Stimulation above Background ≥0.5%) in 2 or more independent donor samples is considered indicative of a potential T cell epitope.
Depending on the size of the study, (20, 40 or 50 donors), two responding donors sets a threshold of 10%, 5% or 4% respectively. Thus, following calculation of Percentage Stimulation above Background, the frequency of positive donor cell responses (Percentage Antigenicity) is expressed as the proportion of responding donors out of total accepted donors screened.
When calculating the antigenicity of a protein it is important to consider the strength of a response as well as the frequency of that response. This is because some binding responses may be pan-allele, but these responses may not be very strong. The strength of positive donor cell responses was determined by taking an average of the percentage stimulation value obtained across accepted donors for each protein. Determining a Response Index (RI) through the multiplication of strength and frequency values is more representative of the level of antigenicity.

[6] = tested on: IFN-β; experiment: Stimulation and sensitization assay in THP1 cells, IFN-β release (ELISA); assay type: cell-based, human; settings: with 2 μM Agent 1
Method: THP1 cells were purchased from ATCC (TIB-202™) and cultured in RPMI 1640 supplemented with 10% FBS and 1% Penicillin/Streptomycin (P/S) at 37° C. and 5% CO2. Passaging of THP1 cells was kept below 20 passages.
ADU-S100 was dissolved according to manufacturer's protocol (tlrl-nacda2r) to 0.5 mg/mL in LAL and subsequently diluted in R10. diABZI Compound 3 was diluted from a 1 mM stock in 100% DMSO into R10. Agent 1 was dissolved to a stock solution of 1250 μM in 50% DMSO, 25 mM HEPES. Concentration of dissolved Agent 1 was determined by A280 measurement using Synergy HI (Biotek Gen5 SW). Subsequently, Agent 1 dilutions were prepared in RPMI 1640, 10% FBS, 1% P/S (R10).
Concentrations of CXCL10 and IFN-β in the collected supernatants were determined by Duo-Set ELISA from R&D. Absorbance measurements at 450/570 nm and quantification were done using Synergy HI plate reader (Biotek Gen5 SW), Microsoft Excel and GraphPad prism v. 9.3.1.
Data analysis and statistical analysis were done using GraphPad prism 9.3.1. […]
Dip: is the plateau in the middle of the curve, corresponding to EMax, same unite as y-axis. The EMax determined here are not derived from this regression, due to the limitations using bell shaped dose response. Instead, EMax-values were determined as the maximum response at any given STING agonist concentration for both IFN-β and CXCL10 from all experiments. […]

Question: With “KKYKNIVLLKGLEVINDYHFGRKKRRQRRRPQ-NH2 [Agent 2]” as the compound, how does the “AUC0-inf” value [1] read?
Answer: 373 ng·h/mL

Question: What about the “Clobs” value [1] of the same compound?
Answer: 26.8 L/h/kg

Question: What about the C0 ([1]; mouse, in vivo, iv, 10 mg/kg) of the same compound?
Answer: 3910 ng/mL

Question: And the “AUC0-inf” value [2]?
Answer: 225 ng·h/mL

Question: What about the “Clobs” value [2] of the same compound?
Answer: 44.5 L/h/kg

Question: What about the C0 ([2]; rat, in vivo, iv, 10 mg/kg) of the same compound?
Answer: 1730 ng/mL

Question: And the “AUC0-inf (ng·h/mL)” value [3]?
Answer: 1,250 ng·h/mL

Question: What about the “C0 (ng/mL)” value [3] of the same compound?
Answer: 2,760 ng/mL

Question: What about the “Clobs” value [3] of the same compound?
Answer: 3.23 L/h/kg

Question: What does the source list for “KKYKNIVLLKGLEVINDYHFGRKKRRQRRRPQ-NH2 [Agent 2 T½ (min)]”?
Answer: Mouse (@ 5.0 µg/mL) [4]: 4 min; Rat (@ 5.0 µg/mL) [4]: 3 min

Question: What does the source list for “KKYKNIVLLKGLEVINDYHFGRKKRRQRRRPQ-NH2 [Agent 2, reference compound]”?
Answer: Response Index (RI) [5]: 0.445; percentage antigenicity [5]: 31.82%

Question: Which “Mouse (@ 5.0 µg/mL)” value [4] does the source give for `CC[C@H](C)[C@H](NC(=O)[C@H](CC(N)=O)NC(=O)[C@H](CCCCN)NC(=O)[C@H](C)NC(=O)[C@H](CCCCN)NC(=O)[C@H](CCCCN)NC(=O)COCCOCCNC(=O)COCCOCCNC(=O)CCCCCCCCCCCCCCC(=O)O)C(=O)N[C@H](C(=O)N[C@@H](CC(C)C)C(=O)N[C@@H](CC(C)C)C(=O)N[C@@H](CCCCN)C(=O)NCC(=O)N[C@@H](CC(C)C)C(=O)N[C@@H](CCC(=O)O)C(=O)N[C@H](C(=O)N[C@H](C(=O)N[C@@H](CC(N)=O)C(=O)N[C@@H](CC(=O)O)C(=O)N[C@@H](Cc1c[nH]c2ccccc12)C(=O)N[C@@H](Cc1c[nH]cn1)C(=O)N[C@@H](Cc1ccccc1)C(=O)N[C@H]1CSSC[C@@H](C(N)=O)NC(=O)[C@@H](CCCNC(=N)N)NC(=O)[C@H](CCCNC(=N)N)NC(=O)[C@@H](CCCCN)NC(=O)[C@H](CCCCN)NC(=O)[C@@H](CCCNC(=N)N)NC(=O)CNC(=O)[C@@H](CCCNC(=N)N)NC(=O)[C@H](CCCNC(=N)N)NC(=O)[C@@H](CCCNC(=N)N)NC1=O)[C@@H](C)CC)C(C)C)C(C)C` [Agent 1 T½ (min)] ({C16 diacid-AEEA-AEEA}-KKAKNIVLLKGLEVINDWHFC[dR]R[dR]G[dR]K[dK]R[dR]C-NH2; disulfide 21-31) here?
Answer: 174 min

Question: And the “NHP (@ 4.4 µg/mL)” value [4]?
Answer: 172 min

Question: What about the “Rat (@ 5.0 µg/mL)” value [4] of the same compound?
Answer: 86 min

Question: For `Nc1nc2c(ncn2[C@@H]2O[C@@H]3COP(=O)(O)O[C@H]4[C@@H](O)[C@H](n5cnc6c(N)ncnc65)O[C@@H]4COP(=O)(O)O[C@@H]2[C@@H]3O)c(=O)[nH]1` [2′3′-cGAMP, cyclic 2′3′ GMP-AMP], which “EC50 of cGAMP for IFN expression” value [6] is on record?
Answer: around 20 μg/mL

Question: With `CC[C@H](C)[C@H](NC(=O)[C@H](CC(N)=O)NC(=O)[C@H](CCCCN)NC(=O)[C@H](C)NC(=O)[C@H](CCCCN)NC(=O)[C@@H](N)CCCCN)C(=O)N[C@H](C(=O)N[C@@H](CC(C)C)C(=O)N[C@@H](CC(C)C)C(=O)N[C@@H](CCCCN)C(=O)NCC(=O)N[C@@H](CC(C)C)C(=O)N[C@@H](CCC(=O)O)C(=O)N[C@H](C(=O)N[C@H](C(=O)N[C@@H](CC(N)=O)C(=O)N[C@@H](CC(=O)O)C(=O)N[C@@H](Cc1c[nH]c2ccccc12)C(=O)N[C@@H](Cc1c[nH]cn1)C(=O)N[C@@H](Cc1ccccc1)C(=O)N[C@H]1CSSC[C@@H](C(N)=O)NC(=O)[C@@H](CCCNC(=N)N)NC(=O)[C@H](CCCNC(=N)N)NC(=O)[C@@H](CCCCN)NC(=O)[C@H](CCCCN)NC(=O)[C@@H](CCCNC(=N)N)NC(=O)CNC(=O)[C@@H](CCCNC(=N)N)NC(=O)[C@H](CCCNC(=N)N)NC(=O)[C@@H](CCCNC(=N)N)NC1=O)[C@@H](C)CC)C(C)C)C(C)C` [Agent 3] (H-KKAKNIVLLKGLEVINDWHFC[dR]R[dR]G[dR]K[dK]R[dR]C-NH2; disulfide 21-31; N-terminus assumed) as the compound, how does the “Response Index (RI)” value [5] read?
Answer: 0.306

Question: And the percentage antigenicity [5]?
Answer: 22.73%
